Reference: patent US20240327506A1, “METHODS AND COMPOSITION FOR THE SELECTIVE ENHANCEMENT OF ADOPTIVE CELL THERAPY” (MaineHealth, priority 2023, published 2024)

Columns and labels:
αvβ3 = αvβ3 (Homo sapiens, UniProt P05106+P06756); details: cited from earlier work
[1] = tested on: angiogenesis and inflammation; details: peptide; cited from earlier work
Cem/C1 T-cells = assay: Transwell migration of Cem/C1 T-cells through collagen type-IV; type: cell-based; details: peptide, SDF-1
Description: (§1) FIGS. 4A-4H. […] Briefly, membranes from transwell migration chambers were coated with either native collagen type-IV or denatured collagen type-IV. T-cell variants were incubated with non-specific control peptide CP, or the RGDKGE (SEQ ID NO: 1)-containing collagen peptide (P2) and seed on the coated transwell membranes. T-cells were allowed to migrate in the presence or absence of SDF-1 added to the lower chamber for approximately 1.5 hours. Cell migration was quantified by counting the number of crystal violet stained cells that had migrated through to the underside of the coated membrane. FIG. 4A. Jurkat T-cell migration through denatured collagen type-IV in the presence of non-specific control peptide CP or RGDKGE (SEQ ID NO: 1)-containing collagen peptide P2 with SDF-1. FIG. 4B. […]
(§2) Given our new observations, and the fact that many tumor types as well as immunosuppressive macrophages can secrete the small soluble RGDKGE (SEQ ID NO: 1) collagen peptide, we next sought to determine whether this soluble collagen peptide could impact T-cell migration through denatured collagen type-IV, a critical ECM component shown to be selectively enriched in tumor vessels. […] Cell migration was quantified following staining cells with crystal violet (6,8). […]

Hut78 T-cells = assay: Transwell migration of Hut78 T-cells through collagen type-IV; type: cell-based, human; details: peptide, absence of SDF-1
Description: FIGS. 4A-4H. […] Briefly, membranes from transwell migration chambers were coated with either native collagen type-IV or denatured collagen type-IV. T-cell variants were incubated with non-specific control peptide CP, or the RGDKGE (SEQ ID NO: 1)-containing collagen peptide (P2) and seed on the coated transwell membranes. T-cells were allowed to migrate in the presence or absence of SDF-1 added to the lower chamber for approximately 1.5 hours. Cell migration was quantified by counting the number of crystal violet stained cells that had migrated through to the underside of the coated membrane. FIG. 4A. Jurkat T-cell migration through denatured collagen type-IV in the presence of non-specific control peptide CP or RGDKGE (SEQ ID NO: 1)-containing collagen peptide P2 with SDF-1. FIG. 4B. Jurkat T-cell migration through native collagen type-IV in the presence of non-specific control peptide CP or RGDKGE (SEQ ID NO: 1)-containing collagen peptide P2 with SDF-1. FIG. 4C. Cem/C1 T-cell migration through denatured collagen type-IV in the presence of non-specific control peptide CP or RGDKGE (SEQ ID NO: 1)-containing collagen peptide P2 with SDF-1. FIG. 4D. Cem/C1 T-cell migration through native collagen type-IV in the presence of non-specific control peptide CP or RGDKGE (SEQ ID NO: 1)-containing collagen peptide P2. FIG. 4E. Hut78 T-cell migration through denatured collagen type-IV in the presence of non-specific control peptide CP or RGDKGE (SEQ ID NO: 1)-containing collagen peptide P2. FIG. 4F. Hut78 T-cell migration through native collagen type-IV in the presence of non-specific control peptide CP or RGDKGE (SEQ ID NO: 1)-containing collagen peptide P2. FIG. 4G Primary CD8+ T-cell migration through denatured collagen type-IV in the presence of non-specific control peptide CP or RGDKGE (SEQ ID NO: 1)-containing collagen peptide P2 with SDF-1. FIG. 4H. CD8+ T-cell migration through native collagen type-IV in the presence of non-specific control peptide CP or RGDKGE (SEQ ID NO: 1)-containing collagen peptide P2 with SDF-1. Data bars indicate the mean cell migration±S.E. *P<0.05.
as §2, with “vessels. Briefly, membranes from transwell migration chambers were coated with either native collagen type-IV or denatured collagen type-IV.” for “vessels.”

Jurkat T-cells = assay: Transwell migration of Jurkat T-cells through collagen type-IV; type: cell-based, human; details: peptide, SDF-1 in lower chamber
Description: as §1, with “4B. Jurkat T-cell migration through native collagen type-IV in the presence of non-specific control peptide CP or RGDKGE (SEQ ID NO: 1)-containing collagen peptide P2 with SDF-1. FIG. 4C. Cem/C1 T-cell migration through denatured collagen type-IV in the presence of non-specific control peptide CP or RGDKGE (SEQ ID NO: 1)-containing collagen peptide P2 with SDF-1. FIG. 4D.” for “4B.”
FIGS. 5A-5F. […] Cell migration was quantified by counting the number of crystal violet stained cells that had migrated through to the underside of the coated membrane. […]

Chain of αvβ3 (P06756 31-889 limits assumed): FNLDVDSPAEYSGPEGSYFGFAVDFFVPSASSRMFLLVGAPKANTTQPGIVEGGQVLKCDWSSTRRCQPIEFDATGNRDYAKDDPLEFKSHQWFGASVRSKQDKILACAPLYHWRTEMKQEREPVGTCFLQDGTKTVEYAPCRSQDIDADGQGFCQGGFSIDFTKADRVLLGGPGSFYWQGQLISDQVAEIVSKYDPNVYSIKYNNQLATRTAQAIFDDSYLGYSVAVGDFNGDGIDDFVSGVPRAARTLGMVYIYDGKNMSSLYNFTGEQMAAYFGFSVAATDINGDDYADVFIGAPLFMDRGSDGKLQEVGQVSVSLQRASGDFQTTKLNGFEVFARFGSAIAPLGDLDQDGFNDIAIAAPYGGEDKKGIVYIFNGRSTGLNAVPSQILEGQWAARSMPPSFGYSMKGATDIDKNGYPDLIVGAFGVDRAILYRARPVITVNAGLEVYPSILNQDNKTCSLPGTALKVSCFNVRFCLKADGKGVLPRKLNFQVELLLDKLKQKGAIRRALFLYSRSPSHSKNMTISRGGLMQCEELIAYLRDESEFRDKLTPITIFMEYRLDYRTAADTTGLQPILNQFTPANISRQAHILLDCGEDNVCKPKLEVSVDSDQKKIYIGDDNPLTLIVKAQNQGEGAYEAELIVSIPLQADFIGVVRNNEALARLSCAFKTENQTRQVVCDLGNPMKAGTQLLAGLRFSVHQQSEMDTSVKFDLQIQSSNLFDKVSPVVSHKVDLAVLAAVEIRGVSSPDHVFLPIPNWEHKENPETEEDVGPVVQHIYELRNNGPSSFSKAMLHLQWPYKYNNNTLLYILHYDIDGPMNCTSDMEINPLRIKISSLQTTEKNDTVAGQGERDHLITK
Chain of αvβ3 (P06756 891-1048 partner limits assumed): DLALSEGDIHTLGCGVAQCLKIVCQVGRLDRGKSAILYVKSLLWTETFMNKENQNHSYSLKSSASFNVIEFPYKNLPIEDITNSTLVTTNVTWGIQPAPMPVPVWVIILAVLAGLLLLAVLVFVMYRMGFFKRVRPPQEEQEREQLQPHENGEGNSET
Chain of αvβ3 (P05106 27-788): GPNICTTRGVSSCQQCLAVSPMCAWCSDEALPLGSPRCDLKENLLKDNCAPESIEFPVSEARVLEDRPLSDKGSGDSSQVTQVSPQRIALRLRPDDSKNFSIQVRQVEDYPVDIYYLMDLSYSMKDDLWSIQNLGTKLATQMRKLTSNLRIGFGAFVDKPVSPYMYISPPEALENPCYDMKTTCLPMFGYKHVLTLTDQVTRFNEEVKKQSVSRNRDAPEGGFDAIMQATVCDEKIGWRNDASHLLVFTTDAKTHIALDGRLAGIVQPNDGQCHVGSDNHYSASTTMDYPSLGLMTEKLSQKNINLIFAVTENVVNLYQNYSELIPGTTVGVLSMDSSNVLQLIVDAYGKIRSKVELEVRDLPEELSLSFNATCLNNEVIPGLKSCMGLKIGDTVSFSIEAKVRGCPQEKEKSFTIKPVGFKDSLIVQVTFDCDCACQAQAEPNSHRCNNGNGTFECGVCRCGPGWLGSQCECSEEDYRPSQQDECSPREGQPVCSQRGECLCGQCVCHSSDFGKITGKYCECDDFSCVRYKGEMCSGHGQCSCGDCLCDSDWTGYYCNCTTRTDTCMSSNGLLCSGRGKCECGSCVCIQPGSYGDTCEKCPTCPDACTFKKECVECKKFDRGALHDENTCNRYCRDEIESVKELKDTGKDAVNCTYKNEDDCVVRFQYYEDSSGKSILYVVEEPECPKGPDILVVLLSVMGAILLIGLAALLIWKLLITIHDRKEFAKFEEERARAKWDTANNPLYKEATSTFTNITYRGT

QGPRGDKGE (CQGPRGDKGEC; Synthetic: Synthetic collagen RGD containing peptide P-2) [Peptide P2, synthetic version of the soluble RGDKGE-containing collagen peptide]
binding to αvβ3 (αvβ3): bound
induction of angiogenesis and inflammation in vivo [1]: significantly induced angiogenesis and inflammation
Cem/C1 T-cell migration (Cem/C1 T-cells; denatured collagen type-IV): selectively inhibited
Cem/C1 T-cell migration (Cem/C1 T-cells; native collagen type-IV): neither the soluble RGDKGE (SEQ ID NO: 1) collagen peptide P2, nor the non-specific control peptide had any significant effect
Hut78 T-cell migration (Hut78 T-cells; denatured collagen type-IV): selectively inhibited
Hut78 T-cell migration (Hut78 T-cells; native collagen type-IV): neither the soluble RGDKGE (SEQ ID NO: 1) collagen peptide P2, nor the non-specific control peptide had any significant effect
Jurkat T-cell migration (Jurkat T-cells; denatured collagen type-IV): selectively inhibited
Jurkat T-cell migration (Jurkat T-cells; native collagen type-IV): neither the soluble RGDKGE (SEQ ID NO: 1) collagen peptide P2, nor the non-specific control peptide had any significant effect
